From patent US20240166612A1, “ARYLTHIOETHER ACETAMIDE AND RELATED COMPOUNDS AND THEIR USE IN TREATING MEDICAL CONDITIONS” (X-Biotix Therapeutics, Inc., priority 2021, published 2024)
Values after ≈ are worked out from the molar mass of the structure shown.

Columns and labels:
[1] = target: recombinant LpxA enzyme (E. coli) (Escherichia coli, UniProt P0A722); test: LpxA in vitro substrate acylation assay with RapidFire MS analysis (E. coli); type: biochemical
Protocol: Exemplary compounds from the above Examples were tested for ability to inhibit LpxA activity using an in vitro substrate acylation assay with RapidFire™ MS analysis. Assay procedures and results are described below.
Reactions were carried out in a final volume of 30 μL with 25 mM HEPES (pH 7.3), 150 mM NaCl, 2 mM DTT, 0.01% BSA, 5 μM UDP-GlcNac, recombinant LpxA enzyme (0.5 nM P. aeruginosa or 1.0 nM E. coli, both produced at Evotec), 0.5 μM acyl-transfer reagent (decanoyl P. aeruginosa acyl-carrier protein [PaACP-C10] or myristoyl E. coli acyl-carrier protein [EcACP-C1-4], both produced at Evotec), and 1% DMSO containing test compound. After 30 min incubation at room temperature, reactions were stopped by addition of 30 μL of 10% TCA in water.
(§1) Samples were centrifuged (4350 rpm, 4° C., 5 min), and then subjected to RapidFire™ MS analysis on an Agilent RapidFire 300 coupled to an Agilent 6460 triple-quadrupole mass spectrometer. Analytes were retained on a C4 (type A) cartridge using the following solvents and flow rates: • Pump 1—H2O with 5 mM NH4OAc at 2.0 mL/min, • Pump 2—MeOH/H2O (90/10) at 1.5 mL/min, • Pump 3—MeOH/H2O (90/10) at 0.5 mL/min, and • Pump 4—ACN (organic)/H2O (aqueous). Substrate and product of the reaction were detected in negative mode ESI-MS/MS by MRM (multiple reaction monitoring) of transitions 606.0/385.0 (UDP-GlcNAc substrate) and 776.2/385.0 (UDP-3-O—(R-3-hydroxydecanoyl)-GlcNAc product, for P. aeruginosa LpxA assay) or 832.2/385.0 (UDP-3-O—(R-3-hydroxymyristoyl)-GlcNAc product, for E. coli LpxA assay).
For IC50 determinations, peak areas of the substrate and product were compared to compute the proportion of product formed by the LpxA enzyme at each compound concentration.

[2] = target: T1, recombinant LpxA enzyme (P. aeruginosa) (Pseudomonas aeruginosa, UniProt Q9X6P4); test: LpxA in vitro substrate acylation assay with RapidFire MS analysis (P. aeruginosa); type: biochemical; conditions: P. aeruginosa enzyme 0.5 nM, PaACP-C10, 30 min
T1 sequence (Q9X6P4 1-258): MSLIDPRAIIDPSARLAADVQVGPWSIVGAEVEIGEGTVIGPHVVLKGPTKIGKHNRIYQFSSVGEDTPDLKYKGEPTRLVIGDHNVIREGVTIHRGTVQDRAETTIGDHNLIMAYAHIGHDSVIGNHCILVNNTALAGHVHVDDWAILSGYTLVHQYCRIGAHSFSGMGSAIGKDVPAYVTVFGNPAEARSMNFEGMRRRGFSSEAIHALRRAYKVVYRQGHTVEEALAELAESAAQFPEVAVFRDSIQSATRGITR

[3] = target: T2, recombinant LpxD enzyme (P. aeruginosa) (Pseudomonas aeruginosa, UniProt Q9HXY6); test: LpxD in vitro substrate acylation assay with RapidFire MS analysis (P. aeruginosa); type: biochemical; conditions: P. aeruginosa enzyme 10 nM, EcACP-C10, 120 min
T2 sequence (Q9HXY6 1-353): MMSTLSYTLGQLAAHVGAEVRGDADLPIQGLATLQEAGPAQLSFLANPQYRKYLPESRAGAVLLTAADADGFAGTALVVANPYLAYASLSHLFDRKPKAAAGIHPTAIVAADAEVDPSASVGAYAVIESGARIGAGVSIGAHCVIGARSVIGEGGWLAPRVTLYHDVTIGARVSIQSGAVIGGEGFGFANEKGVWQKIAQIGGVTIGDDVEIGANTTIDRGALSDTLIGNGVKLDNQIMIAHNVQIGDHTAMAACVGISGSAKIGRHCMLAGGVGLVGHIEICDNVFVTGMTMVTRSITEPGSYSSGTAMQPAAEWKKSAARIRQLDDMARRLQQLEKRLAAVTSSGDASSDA
Protocol: Exemplary compounds from the above Examples were tested for ability to inhibit LpxD activity using an in vitro substrate acylation assay with RapidFire™ MS analysis. Assay procedures and results are described below.
Reactions were carried out in a final volume of 30 μL with 25 mM HEPES (pH 7.3), 150 mM NaCl, 2 mM DTT, 0.01% BSA, 5 μM UDP-3-O[R-3-Hydroxymyristoyl]-glucosamine (produced at Charles River according to literature procedures, and partially purified at Evotec), 10 nM recombinant LpxD enzyme (P. aeruginosa or E. coli, produced at Evotec), 1 μM decanoyl E. coli acyl-carrier protein (EcACP-C10, produced at Evotec), and 1% DMSO containing test compound. After 120 min incubation at room temperature, reactions were stopped by addition of 30 μL of 10% TCA in water.
as §1, with “790.3/385.0 (UDP-3-O[R-3-Hydroxymyristoyl]-glucosamine” for “606.0/385.0 (UDP-GlcNAc”, “960.4/385.0 (UDP-3-O—[R-3-Hydroxymyristoyl]-N—[R-3-hydroxydecanoyl]-glucosamine product).” for “776.2/385.0 (UDP-3-O—(R-3-hydroxydecanoyl)-GlcNAc product, for P. aeruginosa LpxA assay) or 832.2/385.0 (UDP-3-O—(R-3-hydroxymyristoyl)-GlcNAc product, for E. coli LpxA assay).”
For IC50 determinations, peak areas of the substrate and product were compared to compute the proportion of product formed by the LpxD enzyme at each compound concentration. The fractional activity was converted to percentage inhibition and plotted against compound concentration in Evotec's proprietary platform Aplus and fit using a four-parameter logistic using non-linear regression to yield the IC50 value.

[4] = test system: Wild-type P. aeruginosa PAO1; test: Broth microdilution MIC, wild-type P. aeruginosa PAO1; type: cell-based; conditions: Pseudomonas aeruginosa; wild-type P. aeruginosa PAO1, 37° C., 18 h; read-out: PAO1 WT MIC
[5] = test system: P. aeruginosa PAO397; test: Broth microdilution MIC, P. aeruginosa PAO397; type: cell-based; conditions: Pseudomonas aeruginosa, PAO397, 18 h, read-out: PAO397 KO MIC
[6] = test system: E. coli JW0452-3 (BW25113 JacrA::kan); test: Broth microdilution MIC, E. coli JW0452-3; type: cell-based; conditions: Escherichia coli, BW25113, 18 h, read-out: E. coli KO MIC
Protocol: Exemplary compounds from the above Examples were tested to determine their minimum inhibitory concentration (MIC) for exemplary strains of Escherichia and Pseudomonas bacteria using broth microdilution methods. Assay procedures and results are described below.
Broth microdilution assays were conducted according to Clinical and Laboratory Standards Institute guidelines (CLSI, M07-A^11: Clinical and Laboratory Standards Institute. Methods for Dilution Antimicrobial Susceptibility Tests for Bacteria that Grow Aerobically; Approved Standard-11th Edition. Wayne, PA: CLSI, 2018). Briefly, bacterial suspensions were adjusted to a density equivalent to a 0.5 McFarland standard and diluted in sterile, cation-adjusted Mueller-Hinton broth (Beckton Dickinson) to yield a final inoculum between 2×10^5 and 8×10^5 colony-forming units (CFU)/mL. An inoculum volume of 98 μL was added to wells containing 2 μL of 2-fold serial dilutions of drug (prepared in DMSO). All inoculated microdilution trays were incubated in ambient air at 37° C. for 18 h. […] Performance of the assay was monitored by the use of laboratory quality-control strains (S. aureus ATCC 29213 and P. aeruginosa ATCC 27853) and levofloxacin, a compound with a defined MIC spectrum, in accordance with CLSI guidelines (CLSI, M100Ed29: Clinical and Laboratory Standards Institute. Performance Standards for Antimicrobial Susceptibility Testing, 29th Edition. Wayne, PA: CLSI, 2018).
Multiple enterobacteriaceae strains were tested, including both wild-type strains and multi-drug resistance pump deficient mutants. Specific strains tested included the following: • Wild-type P. aeruginosa PAO1, • P. aeruginosa PAO1 ΔmexABoprM—Disabled multi-drug efflux system Δ(MexAB-OprM), • P. aeruginosa PAO397—PAO1Δ(mexAB-oprM) Δ(mexCD-oprJ) Δ(mexEF-oprN) Δ(mexJK) Δ(mexXY) ΔopmH, • P. aeruginosa LESB58—Clinical isolate; colistin-resistant, isolated in the United Kingdom in 1988 from a patient with cystic fibrosis • E. coli JW0452-3 (BW25113 JacrA::kan)—Disabled multi-drug efflux system (AcrAB-TolC). […]

[7] = test system: P. aeruginosa PAO1 ΔmexABoprM; test: Broth microdilution MIC, P. aeruginosa PAO1 ΔmexABoprM; type: cell-based; conditions: Pseudomonas aeruginosa, PAO1, 18 h, read-out: PAO1 KO MIC

Sequence of recombinant LpxA enzyme (E. coli) (P0A722 whole entry): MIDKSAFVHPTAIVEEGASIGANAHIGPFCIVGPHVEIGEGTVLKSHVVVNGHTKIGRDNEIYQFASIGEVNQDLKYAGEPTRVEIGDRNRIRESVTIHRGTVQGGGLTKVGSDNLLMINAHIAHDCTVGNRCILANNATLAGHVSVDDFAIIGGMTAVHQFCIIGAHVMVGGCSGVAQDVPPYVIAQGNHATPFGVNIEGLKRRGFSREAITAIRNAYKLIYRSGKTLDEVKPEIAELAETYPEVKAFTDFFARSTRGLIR

Structure (SMILES)	IC50 [1] [nM]	IC50 [2] [nM]	IC50 [3] [nM]	MIC [4] [µg/mL]	MIC [5] [µg/mL]	MIC [6] [µg/mL]	MIC [7] [µg/mL]
N#Cc1ccc(CN(CC(=O)N2CCOCC2)C(=O)CSc2ccccc2Cl)cc1 [Compound No. 2]	> 20000	> 1000	> 20000	> 64	16 to 64 (≈ 36 to 144 µM)	–	–
CN1CC(NC(=O)CN(Cc2ccc(C#N)cc2)C(=O)CSc2ccccc2Cl)C1 [Compound No. 6]	–	> 1000	> 20000	> 64	1 to 16 (≈ 2.26 to 36.1 µM)	–	–
N#Cc1ccc(CN(Cc2nnc(N)o2)C(=O)CSc2cc(-c3c[nH]cn3)ccc2Cl)c(F)c1 [Compound No. 62, N-[(5-Amino-1,3,4-oxadiazol-2-yl)methyl]-2-[2-chloro-5-(1H-imidazol-4-yl)phenyl]sulfanyl-N-[(4-cyano-2-fluoro-phenyl)methyl]acetamide]	5000 to 20000	100 to 1000	–	> 64	1 to 16 (≈ 2.01 to 32.1 µM)	16 to 64 (≈ 32.1 to 129 µM)	–
N#Cc1ccc(CN(CC(=O)NC2CNC2)C(=O)CSc2ccccc2Cl)cc1 [compound 5]	–	100 to 1000	> 20000	> 64	16 to 64 (≈ 37.3 to 149 µM)	16 to 64 (≈ 37.3 to 149 µM)	–
CS(=O)(=O)Nc1ccc(CN(Cc2nnc(N)o2)C(=O)CSc2ccccc2Cl)cc1 [compound 46]	> 20000	20 to 100	–	> 64	1 to 16 (≈ 2.07 to 33.2 µM)	16 to 64 (≈ 33.2 to 133 µM)	> 64
